In US7807877B2, “Genetic sequences having methyltransferase activity and uses therefor” (International Flower Developments Pty. Ltd., priority 2002, dated 2010):
Several values for one entry are separate records, joined by “and”; a condition that tells them apart may be missing. Equal entries are not always repeated.

Legend:
[1] = tested on: Petunia FMT (E20); assay: HPLC assay of methyltransferase activity, E. coli extract containing pCGP3086; format: biochemical, Petunia hybrida; conditions: for product of flavonoid methyltransferase activity with the substrate: Petunia FMT (E20) in pCGP3086, to a lesser degree malvidin; for % of anthocyanidin detected peo / % of anthocyanidin detected cya / % of anthocyanidin detected del / % of anthocyanidin detected mal / % of anthocyanidin detected pet: pCGP3086 (PFMT), percentage of total anthocyanidins
Experimental: (§1) The assay reactions were incubated at 30° C. for 30 minutes. Fifty microlitres of a chloroform mix (CHCl3:methanol/1% HCl, 2:1) was added and the mixture was then vortexed to stop the reactions. The phases were separated by centrifugation at 13,000 rpm for 5 minutes and 50 μL of the upper phase was transferred into a clean tube and the contents subsequently hydrolysed by the addition of 12.5 μL of 10M HCl. The tube was then placed in a boiling waterbath for 30 minutes and the contents subsequently desiccated under vacuum. The residue was resuspended in 2-3 μL of methanol/1% HCl and spotted onto a TLC plate alongside standard samples of petunidin, malvidin and delphinidin. The anthocyanidins were separated in a Forestal system (HOAc:water:HCl; 30:10:3) (Markham, Techniques of flavonoid identification, Academic Press, London, 1982) and the TLC was exposed to an autoradiographic film (Kodak) for 16 hours at −70° C.
(§2) Anthocyanidins in the reaction mixture were analysed by HPLC via gradient elution using gradient conditions of 50% B to 60% B over 10 minutes, then 60% B for 10 minutes and finally 60% B to 100% B over 5 minutes where solvent A consisted of TFA:H2O (5:995) and solvent B consisted of acetonitrile:TFA:H2O (500:5:495). An Asahi Pac ODP-50 cartridge column (250 mm×4.6 mm ID) was used for the reversed phase chromatographic separations. […].
(§3) The enzyme activities of the peptides encoded by Petunia and Torenia FMT cDNA clones in pCGP3086 and pCGP3090, respectively were further assessed using the substrates delphinidin 3-glucoside and delphinidin 3-rutinoside and delphinidin 3,5-diglucoside under assay conditions as previously described (Table 15, Example 9) except that the ^14C-labelled SAM was replaced with non radioactive SAM at 2 mg/mL and the substrates (delphinidin 3-glucoside and delphinidin 3-rutinoside and delphinidin 3,5-diglucoside) at 2 mg/mL.

[2] = Reconstruction experiments: anthocyanins added to petal juice of Medeo roses; format: physicochemical, Rosa hybrida
Experimental: The rose cultivar Medeo generally produces cream-colored to pale apricot flowers (RHSCC 158C to 159A). […] The estimated vacuolar pH of Medeo petals is around 4.6. The petal juice of Medeo roses was extracted by grinding one petal with 50 μL of water using a mortar and pestle. The petal juice was collected and mixed with 10-20 μL of 1-2 mg/g delphinidin 3-glucoside, delphinidin 3,5-diglucoside and malvidin 3,5-diglucoside. The colors observed were described according to the Royal Horticultural Society Color Charts (RHSCC) (The Royal Horticultural Society, London) (Table 8).

[3] = tested on: Torenia FMT (TFMT); assay: HPLC assay of methyltransferase activity, E. coli extract containing pCGP3090; format: biochemical, Torenia hybrida; conditions: for product of flavonoid methyltransferase activity with the substrate: Torenia FMT in pCGP3090, to a lesser degree petunidin; for % of anthocyanidin detected cya / % of anthocyanidin detected peo / % of anthocyanidin detected del / % of anthocyanidin detected mal / % of anthocyanidin detected pet: pCGP3090 (TFMT), percentage of total anthocyanidins
Experimental: as §1, §2, §3

[4] = tested on: rose petals; assay: Incubation of excised rose petal segments with precursors or end products; format: cell-based, Rosa hybrida; conditions: around 16 hours; for Color at cut edge after incubation in DHM: around 23° C.; for Color at cut edge upon production of delphinidin: incubation in dihydromyricetin 1-2 mg/mL
Experimental: To determine whether rose petals contained the enzymes necessary for conversion of dihydromyricetin to delphinidin, precursor-feeding experiments with dihydromyricetin were initiated.
Petal segments of a selection of commercial cultivars of roses (Toplesse, Lambada, Medeo, Pamela, Sonia, Oceana, Mystique) were placed in solutions of 1-2 mg/mL dihydromyrectin or water only and incubated for around 16 hours in a growth room at a temperature of around 23° C. Pink/purple colors were observed near the cut edges of the petals (Table 6).
Petal segments of roses were placed in solutions of 1-2 mg/mL malvidin 3,5-diglucoside, 1-2 mg/mL dihydromyrectin or water only and incubated for around 16 hours in a growth room at a temperature of around 23° C. The production of colors in the purple range were observed near the cut edges of the petals upon incubation with dihydromyrectin or malvidin 3,5-diglucoside (Table 7).

[5] = tested on: Petunia FMT (E20); assay: Methyltransferase assay (14C-SAM, TLC) of crude homogenate of E. coli containing pCGP3086; format: biochemical, Petunia hybrida; set-up: key to Petunidin (product on TLC) / Malvidin (product on TLC): yes = detection of product on TLC; no = no reaction observed as determined by absence of product
Experimental: 10 mLs of LB containing ampicillin at 100 μg/mL and kanamycin at 25 μg/mL. (LB/Amp100+Kan25) were inoculated with a single colony of pCGP3086 or pQE30 in M15 (pREP4) cells. […] IPTG was then added to a final concentration of 1 mM and the culture was further incubated at 30° C. with shaking for 8 hours. The cells were pelleted by centrifugation at 3500 rpm for 10 minutes at 4° C. The pellet was resuspended in 1 mL of 0.1 M NaPi, pH 7.5, 4 mM MgCl2. […] The mixture was then sonicated for two bursts of 10 seconds at output 2-3 and then incubated on ice for 30 minutes. The cell debris was pelleted by centrifugation at 14,000 rpm for 20 minutes at 4° C. The supernatant was passed through a NAP-10 column (Pharmacia) and 1.5 mL of the sample collected in 0.1 M NaPi, pH 7.5, 4 mM MgCl2. […] (1983), supra. Methyltransferase assays were set up according to Table 10 in a total reaction volume of 50 μL. […] The assay reactions were incubated at 30° C. for 30 minutes. Fifty microlitres of a chloroform mix (CHCl3:methanol/1% HCl, 2:1) was added and the mixture was then vortexed to stop the reactions. […] The tube was then placed in a boiling waterbath for 30 minutes and the contents subsequently desiccated under vacuum.

[6] = duplicate a/b, listed as D3, 5G
[7] = pCGP3086, substrate 2 mg/mL, SAM 2 mg/mL, duplicate a/b
[8] = pCGP3090, substrate 2 mg/mL, SAM 2 mg/mL, duplicate a/b
[9] = pCGP3090, substrate 2 mg/mL, SAM 2 mg/mL, duplicate a/b, listed as D3, 5G
[10] = rose cultivar Lambada (orange petal), 1-2 mg/mL
[11] = rose cultivar Toplesse (pink petal), 1-2 mg/mL
[12] = pCGP3086 crude homogenate + 14C-SAM (Table 16, positive control)
[13] = pCGP3086 crude homogenate + 14C-SAM, 30° C., 30 minutes (Table 11)

OC[C@H]1O[C@@H](Oc2cc3c(O[C@@H]4O[C@H](CO)[C@@H](O)[C@H](O)[C@H]4O)cc(O)cc3[o+]c2-c2cc(O)c(O)c(O)c2)[C@H](O)[C@@H](O)[C@@H]1O [D35G, delphinidin 3,5-diglucoside]
product of flavonoid methyltransferase activity with the substrate [1]: predominantly petunidin | Predominant FMT Activity ([1]; pCGP3086): 3′FMT | % of anthocyanidin detected peo ([1]; duplicate a/b): 0.0% | % of anthocyanidin detected cya [1, 6]: 0.0% and 2.2% | % of anthocyanidin detected del [1, 6]: 45.6% and 55.9% | % of anthocyanidin detected mal [1, 6]: 11.0% and 6.0% | % of anthocyanidin detected pet [1, 6]: 43.4% and 35.9% | Anthocyanidins (mg/g) Peo [1, 7]: 0 mg/g | Anthocyanidins (mg/g) Mal ([1]; pCGP3086, substrate 2 mg/mL, SAM 2 mg/mL, duplicate a/b, listed as D3, 5G): 0.7 mg/g and 1.1 mg/g | COLOR ([2]; pH 4.6): violet | RHSCC# ([2]; pH 4.6): 88A | COLOR ([2]; pH 4.9): violet | RHSCC# ([2]; pH 4.9): 88A | product of flavonoid methyltransferase activity with the substrate [3]: predominantly malvidin | Predominant FMT Activity ([3]; pCGP3090): 3′5′FMT | % of anthocyanidin detected cya ([3]; duplicate a/b): 0.0% | % of anthocyanidin detected peo ([3]; duplicate a/b): 0.0% | % of anthocyanidin detected del [3, 6]: 22.9% and 28.9% | % of anthocyanidin detected mal [3, 6]: 70.0% and 66.9% | % of anthocyanidin detected pet [3, 6]: 7.1% and 4.3% | Anthocyanidins (mg/g) Cya [3, 8]: 0 mg/g | Anthocyanidins (mg/g) Peo [3, 8]: 0 mg/g | Anthocyanidins (mg/g) Mal [3, 9]: 7.3 mg/g and 12.4 mg/g | Anthocyanidins (mg/g) Pet [3, 9]: 0.7 mg/g and 0.8 mg/g

O=C1c2c(O)cc(O)cc2O[C@H](c2cc(O)c(O)c(O)c2)[C@H]1O [DHM, dihydromyricetin]
TLC analysis of the anthocyanidins in the pink/purple segments ([4]; petal segments of commercial rose cultivars, 1-2 mg/mL): production of delphinidin | Color at cut edge after incubation in DHM [4, 10]: pink/purple | Color at cut edge upon production of delphinidin ([4]; rose cultivar Lambada (orange petal)): pink/purple | Color at cut edge after incubation in DHM ([4]; rose cultivar Medeo (pale apricot petal), 1-2 mg/mL): pink/purple | Color at cut edge after incubation in DHM ([4]; rose cultivar Mystique (apricot petal), 1-2 mg/mL): pink/purple | Color at cut edge after incubation in DHM ([4]; rose cultivar Oceana (cream petal), 1-2 mg/mL): pink/purple | Color at cut edge after incubation in DHM ([4]; rose cultivar Pamela (white/pale pink petal), 1-2 mg/mL): pink/purple | Color at cut edge after incubation in DHM ([4]; rose cultivar Sonia (apricot/pink petal), 1-2 mg/mL): pink/purple | Color at cut edge after incubation in DHM [4, 11]: pink/purple | Color at cut edge upon production of delphinidin ([4]; rose cultivar Toplesse (pink petal)): pink/purple

C[C@@H]1O[C@@H](OC[C@H]2O[C@@H](Oc3cc4c(O)cc(O)cc4[o+]c3-c3cc(O)c(O)c(O)c3)[C@H](O)[C@@H](O)[C@@H]2O)[C@H](O)[C@H](O)[C@H]1O [D3R, delphinidin 3-rutinoside]
product of flavonoid methyltransferase activity with the substrate [1]: predominantly petunidin | Predominant FMT Activity ([1]; pCGP3086): 3′FMT | % of anthocyanidin detected cya ([1]; duplicate a/b): 2.5% | % of anthocyanidin detected del ([1]; duplicate a/b): 21.2% and 21.7% | % of anthocyanidin detected mal ([1]; duplicate a/b): 16.6% and 17.4% | % of anthocyanidin detected peo ([1]; duplicate a/b): 1.2% and 1.1% | % of anthocyanidin detected pet ([1]; duplicate a/b): 58.5% and 57.4% | Anthocyanidins (mg/g) Cya [1, 7]: 0.4 mg/g and 0.5 mg/g | Anthocyanidins (mg/g) Del [1, 7]: 3.7 mg/g and 4.5 mg/g | Anthocyanidins (mg/g) Mal [1, 7]: 2.9 mg/g and 3.6 mg/g | Anthocyanidins (mg/g) Peo [1, 7]: 0.2 mg/g | Anthocyanidins (mg/g) Pet [1, 7]: 10.2 mg/g and 11.9 mg/g | Petunidin and malvidin, the methylated derivatives of delphinidin, in assay reactions ([5]; crude homogenates from pCGP3086 cells, 14C-SAM): detected | Malvidin (product on TLC) [5, 12]: yes | Petunidin (product on TLC) [5, 12]: yes | Malvidin (product on TLC) [5, 13]: yes | Petunidin (product on TLC) [5, 13]: yes | product of flavonoid methyltransferase activity with the substrate [3]: predominantly malvidin | Predominant FMT Activity ([3]; pCGP3090): 3′5′FMT | % of anthocyanidin detected cya ([3]; duplicate a/b): 0.0% | % of anthocyanidin detected del ([3]; duplicate a/b): 13.2% and 14.6% | % of anthocyanidin detected mal ([3]; duplicate a/b): 80.9% and 79.1% | % of anthocyanidin detected peo ([3]; duplicate a/b): 1.9% | % of anthocyanidin detected pet ([3]; duplicate a/b): 4.0% and 4.3% | Anthocyanidins (mg/g) Cya [3, 8]: 0 mg/g | Anthocyanidins (mg/g) Del [3, 8]: 2.5 mg/g and 2.8 mg/g | Anthocyanidins (mg/g) Mal [3, 8]: 15.6 mg/g and 15.1 mg/g | Anthocyanidins (mg/g) Peo [3, 8]: 0.4 mg/g | Anthocyanidins (mg/g) Pet [3, 8]: 0.8 mg/g

COc1cc(-c2[o+]c3cc(O)cc(O[C@@H]4O[C@H](CO)[C@@H](O)[C@H](O)[C@H]4O)c3cc2O[C@@H]2O[C@H](CO)[C@@H](O)[C@H](O)[C@H]2O)cc(OC)c1O [M35G, malvidin 3,5-diglucoside]
Color at cut edge after incubation with malvidin [4, 10]: violet/purple | Color at cut edge after incubation with malvidin [4, 11]: violet/purple | COLOR ([2]; pH 4.6): violet-blue | COLOR ([2]; pH 4.9): violet-blue | RHSCC# ([2]; pH 4.9): 90A
